According to patent publication US12660819B2, “Herbicidal derivatives” (SYNGENTA CROP PROTECTION AG, priority 2020, dated 2026):

Assays:
Assay type in all cases: in vivo
Solanum nigrum (SOLNI) [1] = experiment: Pre-emergence Test (glasshouse, percentage damage to the plant); details: 1000 g/ha unless otherwise stated, five-point scale
Lolium perenne (LOLPE) [2] = experiment: as above; details: 1000 g/ha unless otherwise stated, five-point scale
[3] = system: Ipomoea hederacea (IPOHE); experiment: as above; details: 1000 g/ha unless otherwise stated, five-point scale
Setaria faberi (SETFA) [4] = experiment: as above; details: 1000 g/ha unless otherwise stated, five-point scale
[5] = system: Echinochloa crus-galli (ECHCG); experiment: as above; details: 1000 g/ha unless otherwise stated, five-point scale
[6] = system: Amaranthus retoflexus (AMARE); experiment: as above; details: 1000 g/ha unless otherwise stated, five-point scale
Lolium perenne (LOLPE) [7] = experiment: Post-emergence Test (glasshouse, percentage damage to the plant); details: post-emergence spray, 1000 g/ha unless otherwise stated, evaluated after 13 days
Procedure, shortened: (§1)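 Rate 1000 g/ha unless stated otherwise. Vehicle: acetone/water 50:50 with 0.5% Tween 20, diluted into aqueous spray. Timing: spray after sowing, read 13 days later. Score: 5=81-100%, 4=61-80%, 3=41-60%, 2=21-40%, 1=0-20% damage.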

[8] = system: Amaranthus retoflexus (AMARE); experiment: as above; details: post-emergence spray, 1000 g/ha unless otherwise stated, evaluated after 13 days
Procedure, shortened: as §1

[9] = system: Ipomoea hederacea (IPOHE); experiment: as above; details: post-emergence spray, 1000 g/ha unless otherwise stated, evaluated after 13 days
Procedure, shortened: (§2)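 Percentage damage to the plant, assessed 13 days after application and scored 1–5 in 20% bands. Pots sown in standard soil received compound at 1000 g/ha unless otherwise stated, sprayed under 24/16 °C, 14 h light, 65% humidity.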

Setaria faberi (SETFA) [10] = experiment: as above; details: post-emergence spray, 1000 g/ha unless otherwise stated, evaluated after 13 days
Procedure, shortened: as §2

[11] = system: Echinochloa crus-galli (ECHCG); experiment: as above; details: post-emergence spray, 1000 g/ha unless otherwise stated, evaluated after 13 days
Procedure, shortened: as §1

Solanum nigrum (SOLNI) [12] = experiment: as above; details: post-emergence spray, 1000 g/ha unless otherwise stated, evaluated after 13 days
Procedure, shortened: as §1

| SMILES | percentage damage to the plant, SOLNI (Solanum nigrum (SOLNI) [1]) | percentage damage to the plant, LOLPE (Lolium perenne (LOLPE) [2]) | percentage damage to the plant, IPOHE [3] | percentage damage to the plant, SETFA (Setaria faberi (SETFA) [4]) | percentage damage to the plant, ECHCG [5] | percentage damage to the plant, AMARE [6] | Post-emergence Test LOLPE, percentage damage to the plant (five-point scale) (Lolium perenne (LOLPE) [7]) | Post-emergence Test AMARE, percentage damage to the plant (five-point scale) [8] | Post-emergence Test IPOHE, percentage damage to the plant (five-point scale) [9] | Post-emergence Test SETFA, percentage damage to the plant (five-point scale) (Setaria faberi (SETFA) [10]) | Post-emergence Test ECHCG, percentage damage to the plant (five-point scale) [11] | Post-emergence Test SOLNI, percentage damage to the plant (five-point scale) (Solanum nigrum (SOLNI) [12]) |
| --- | --- | --- | --- | --- | --- | --- | --- | --- | --- | --- | --- | --- |
| CCn1c(C)c(-c2cnn(C)c2)c(=O)c(C(=O)O)c1-c1ccc(Cl)c(Cl)c1 [Compound 1, 2-(3,4-dichlorophenyl)-1-ethyl-6-methyl-5-(1-methylpyrazol-4-yl)-4-oxo-pyridine-3-carboxylic acid] | 5 (5=81-100%) | 4 (4=61-80%) | 4 (4=61-80%) | 5 (5=81-100%) | 5 (5=81-100%) | 1 (1=0-20%) | 3 (3=41-60%) | 5 (5=81-100%) | 4 (4=61-80%) | 5 (5=81-100%) | 5 (5=81-100%) | 5 (5=81-100%) |
| CCn1c(C)c(-c2ccc(F)cc2F)c(=O)c(C(=O)O)c1-c1ccc(-c2ccc(F)cc2F)c(Cl)c1 [Compound 4, 2-[3-chloro-4-(2,4-difluorophenyl)phenyl]-5-(2,4-difluorophenyl)-1-ethyl-6-methyl-4-oxo-pyridine-3-carboxylic acid] | – | 1 (1=0-20%) | 1 (1=0-20%) | 1 (1=0-20%) | 1 (1=0-20%) | 1 (1=0-20%) | 1 (1=0-20%) | 3 (3=41-60%) | 2 (2=21-40%) | 2 (2=21-40%) | 1 (1=0-20%) | – |
| Cc1c(-c2ccc(Cl)cc2)c(=O)c(C(=O)O)c(-c2ccc(Cl)c(Cl)c2)n1C [Compound 5, 5-(4-chlorophenyl)-2-(3,4-dichlorophenyl)-1,6-dimethyl-4-oxo-pyridine-3-carboxylic acid] | 4 (4=61-80%) | 4 (4=61-80%) | 4 (4=61-80%) | 4 (4=61-80%) | 4 (4=61-80%) | 4 (4=61-80%) | 1 (1=0-20%) | 3 (3=41-60%) | 3 (3=41-60%) | 5 (5=81-100%) | 5 (5=81-100%) | 2 (2=21-40%) |
| CCn1c(C)c(-c2cccnc2F)c(=O)c(C(=O)O)c1-c1ccc(Cl)c(Cl)c1 [Compound 6, 2-(3,4-dichlorophenyl)-1-ethyl-5-(2-fluoro-3-pyridyl)-6-methyl-4-oxo-pyridine-3-carboxylic acid] | 3 (3=41-60%) | 4 (4=61-80%) | 1 (1=0-20%) | 5 (5=81-100%) | 4 (4=61-80%) | 4 (4=61-80%) | 4 (4=61-80%) | 4 (4=61-80%) | 1 (1=0-20%) | 4 (4=61-80%) | 4 (4=61-80%) | 3 (3=41-60%) |
| CCn1c(COC)c(-c2ccc(Cl)cc2)c(=O)c(C(=O)O)c1-c1ccc(Cl)c(Cl)c1 [Compound 7, 5-(4-chlorophenyl)-2-(3,4-dichlorophenyl)-1-ethyl-6-(methoxymethyl)-4-oxo-pyridine-3-carboxylic acid] | 1 (1=0-20%) | 1 (1=0-20%) | 1 (1=0-20%) | 2 (2=21-40%) | 2 (2=21-40%) | – | 1 (1=0-20%) | 5 (5=81-100%) | 2 (2=21-40%) | 4 (4=61-80%) | 4 (4=61-80%) | 2 (2=21-40%) |
| CCn1c(C)c(-c2ccc(F)nc2)c(=O)c(C(=O)O)c1-c1ccc(Cl)c(Cl)c1 [Compound 8, 2-(3,4-dichlorophenyl)-1-ethyl-5-(6-fluoro-3-pyridyl)-6-methyl-4-oxo-pyridine-3-carboxylic acid] | 3 (3=41-60%) | 3 (3=41-60%) | 1 (1=0-20%) | 4 (4=61-80%) | 2 (2=21-40%) | 3 (3=41-60%) | 3 (3=41-60%) | 5 (5=81-100%) | 4 (4=61-80%) | 5 (5=81-100%) | 4 (4=61-80%) | 5 (5=81-100%) |
| CCn1c(C)c(-c2ccc(Cl)c(F)c2)c(=O)c(C(=O)O)c1-c1ccc(Cl)c(Cl)c1 [Compound 9, 5-(4-chloro-3-fluoro-phenyl)-2-(3,4-dichlorophenyl)-1-ethyl-6-methyl-4-oxo-pyridine-3-carboxylic acid] | 3 (3=41-60%) | 1 (1=0-20%) | 1 (1=0-20%) | 4 (4=61-80%) | 5 (5=81-100%) | 5 (5=81-100%) | 1 (1=0-20%) | 5 (5=81-100%) | 3 (3=41-60%) | 5 (5=81-100%) | 5 (5=81-100%) | 3 (3=41-60%) |
| CCn1c(C)c(-c2ccc(Cl)nc2)c(=O)c(C(=O)O)c1-c1ccc(Cl)c(Cl)c1 [Compound 12, 5-(6-chloro-3-pyridyl)-2-(3,4-dichlorophenyl)-1-ethyl-6-methyl-4-oxo-pyridine-3-carboxylic acid] | – | 1 (1=0-20%) | 1 (1=0-20%) | 5 (5=81-100%) | 4 (4=61-80%) | 5 (5=81-100%) | 3 (3=41-60%) | 5 (5=81-100%) | 4 (4=61-80%) | 5 (5=81-100%) | 4 (4=61-80%) | – |
| CCn1c(C)c(-c2cccnc2)c(=O)c(C(=O)O)c1-c1ccc(Cl)c(Cl)c1 [Compound 21, 2-(3,4-dichlorophenyl)-1-ethyl-6-methyl-4-oxo-5-pyridin-1-ium-3-yl-pyridine-3-carboxylic acid;2,2,2-trifluoroacetate] | – | – | – | 3 (3=41-60%) | 2 (2=21-40%) | – | – | 3 (3=41-60%) | 3 (3=41-60%) | – | 3 (3=41-60%) | 4 (4=61-80%) |
